Data from PubChem BioAssay (NCI).
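Each compound was tested at five concentrations against cells in 96-well plates for 48 hours. At the GI50, growth is halved. TGI: total growth inhibition.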

Columns and labels:
Test in all cases: NCI-60 cell line screen, 48 h
UACC-62 melanoma = tested on: UACC-62 melanoma
RPMI-8226 leukemia = tested on: RPMI-8226 leukemia
CCRF-CEM leukemia = tested on: CCRF-CEM leukemia
SNB-19 CNS = tested on: SNB-19 CNS
HOP-62 NSCLC = tested on: HOP-62 NSCLC
SK-MEL-28 melanoma = tested on: SK-MEL-28 melanoma
HCT-15 colon = tested on: HCT-15 colon
TK-10 renal = tested on: TK-10 renal
OVCAR-5 ovarian = tested on: OVCAR-5 ovarian
HOP-92 NSCLC = tested on: HOP-92 NSCLC
NCI/ADR-RES ovarian = tested on: NCI/ADR-RES ovarian
MCF7 breast = tested on: MCF7 breast
LOX IMVI melanoma = tested on: LOX IMVI melanoma
SR leukemia = tested on: SR leukemia
786-0 renal = tested on: 786-0 renal
A549 NSCLC = tested on: A549 NSCLC
HCT-116 colon = tested on: HCT-116 colon
PC-3 prostate = tested on: PC-3 prostate
SNB-75 CNS = tested on: SNB-75 CNS
SK-MEL-2 melanoma = tested on: SK-MEL-2 melanoma
BT-549 breast = tested on: BT-549 breast
OVCAR-3 ovarian = tested on: OVCAR-3 ovarian
K-562 leukemia = tested on: K-562 leukemia
UACC-257 melanoma = tested on: UACC-257 melanoma
SF-539 CNS = tested on: SF-539 CNS
SF-268 CNS = tested on: SF-268 CNS
SW-620 colon = tested on: SW-620 colon
T-47D breast = tested on: T-47D breast
CAKI-1 renal = tested on: CAKI-1 renal
HS 578T breast = tested on: HS 578T breast
OVCAR-4 ovarian = tested on: OVCAR-4 ovarian
A498 renal = tested on: A498 renal
DU-145 prostate = tested on: DU-145 prostate
HT29 colon = tested on: HT29 colon
ACHN renal = tested on: ACHN renal
SN12C renal = tested on: SN12C renal
MOLT-4 leukemia = tested on: MOLT-4 leukemia
HL-60(TB) leukemia = tested on: HL-60(TB) leukemia
M14 melanoma = tested on: M14 melanoma
NCI-H226 lung = tested on: NCI-H226 lung
SK-MEL-5 melanoma = tested on: SK-MEL-5 melanoma
COLO 205 colon = tested on: COLO 205 colon
NCI-H460 lung = tested on: NCI-H460 lung
RXF 393 renal = tested on: RXF 393 renal
KM12 colon = tested on: KM12 colon
OVCAR-8 ovarian = tested on: OVCAR-8 ovarian
MDA-MB-435 = tested on: MDA-MB-435
SK-OV-3 ovarian = tested on: SK-OV-3 ovarian
MDA-MB-231 breast = tested on: MDA-MB-231 breast
U251 CNS = tested on: U251 CNS
HCC-2998 colon = tested on: HCC-2998 colon

## [C-]#[N+][C@]12C(=O)[C@H](CCC1(C)C)C(C)(C)[C@H]1C(=O)N(C)c3cccc2c31
UACC-62 melanoma
  GI50: 22.8 µM
  TGI: > 100 µM
RPMI-8226 leukemia
  GI50: 13.1 µM
  TGI: > 100 µM
CCRF-CEM leukemia
  GI50: 5.84 µM
  TGI: > 100 µM
SNB-19 CNS
  GI50: 70 µM
  TGI: > 100 µM
HOP-62 NSCLC
  GI50: 9.6 µM
  TGI: > 100 µM
SK-MEL-28 melanoma
  GI50: > 100 µM
  TGI: > 100 µM
HCT-15 colon
  GI50: 58.5 µM
  TGI: > 100 µM
TK-10 renal
  GI50: > 100 µM
  TGI: > 100 µM
OVCAR-5 ovarian
  GI50: > 100 µM
  TGI: > 100 µM
HOP-92 NSCLC
  GI50: 3.11 µM
  TGI: > 100 µM
NCI/ADR-RES ovarian
  GI50: > 100 µM
  TGI: > 100 µM
MCF7 breast
  GI50: 4.54 µM
  TGI: > 100 µM
LOX IMVI melanoma
  GI50: > 100 µM
  TGI: > 100 µM
SR leukemia
  GI50: 6.52 µM
  TGI: > 100 µM
786-0 renal
  GI50: > 100 µM
  TGI: > 100 µM
A549 NSCLC
  GI50: 5.42 µM
  TGI: > 100 µM
HCT-116 colon
  GI50: 3.73 µM
  TGI: > 100 µM
PC-3 prostate
  GI50: 3.27 µM
  TGI: > 100 µM
SNB-75 CNS
  GI50: 64.3 µM
  TGI: > 100 µM
SK-MEL-2 melanoma
  GI50: 30.6 µM
  TGI: > 100 µM
BT-549 breast
  GI50: 46.2 µM
  TGI: > 100 µM
OVCAR-3 ovarian
  GI50: 4.13 µM
  TGI: > 100 µM
K-562 leukemia
  GI50: 4.8 µM
  TGI: > 100 µM
UACC-257 melanoma
  GI50: 4.07 µM
  TGI: > 100 µM
SF-539 CNS
  GI50: 61.6 µM
  TGI: > 100 µM
SF-268 CNS
  GI50: > 100 µM
  TGI: > 100 µM
SW-620 colon
  GI50: 18.6 µM
  TGI: > 100 µM
T-47D breast
  GI50: 9.41 µM
  TGI: > 100 µM
CAKI-1 renal
  GI50: 51.7 µM
  TGI: > 100 µM
HS 578T breast
  GI50: 68.5 µM
  TGI: > 100 µM
OVCAR-4 ovarian
  GI50: 3.82 µM
  TGI: > 100 µM
A498 renal
  GI50: 0.81 µM
  TGI: 74.2 µM
DU-145 prostate
  GI50: 61.6 µM
  TGI: > 100 µM
HT29 colon
  GI50: 17.6 µM
  TGI: > 100 µM
ACHN renal
  GI50: 80.7 µM
  TGI: > 100 µM
SN12C renal
  GI50: 41.9 µM
  TGI: > 100 µM
MOLT-4 leukemia
  GI50: 10.3 µM
  TGI: > 100 µM
HL-60(TB) leukemia
  GI50: 4.07 µM
  TGI: > 100 µM
M14 melanoma
  GI50: 29.9 µM
  TGI: > 100 µM
NCI-H226 lung
  GI50: > 100 µM
  TGI: > 100 µM
SK-MEL-5 melanoma
  GI50: 9.08 µM
  TGI: > 100 µM
COLO 205 colon
  GI50: 5.06 µM
  TGI: > 100 µM
NCI-H460 lung
  GI50: 5.02 µM
  TGI: > 100 µM
RXF 393 renal
  GI50: > 100 µM
  TGI: > 100 µM
KM12 colon
  GI50: 9.99 µM
  TGI: > 100 µM
OVCAR-8 ovarian
  GI50: 13.8 µM
  TGI: > 100 µM
MDA-MB-435
  GI50: 24.7 µM
  TGI: > 100 µM
SK-OV-3 ovarian
  GI50: 44.4 µM
  TGI: > 100 µM
MDA-MB-231 breast
  GI50: > 100 µM
  TGI: > 100 µM
U251 CNS
  GI50: 7.08 µM
  TGI: > 100 µM
HCC-2998 colon
  GI50: > 100 µM
  TGI: > 100 µM
